According to ChEMBL document CHEMBL4419164, “Methods and compositions for inhibiting cnksr1” (2018):
Activity calls are given as the source filed them. The calls are words filed in the database; no cut-off is given here.

Columns and labels:
[1] = molecular target: T1, carboxylesterase 2 (cocaine esterase) (Homo sapiens, UniProt O00748); assay: Stability assessed as recombinant human carboxyesterase-2 mediated compound hydrolysis by measuring half life at 50 ug/ml at 37 degC at pH 7.4; assay type: ADME; conditions: recombinant human carboxylesterase-2, pH 7.4
T1 sequence (O00748 whole entry): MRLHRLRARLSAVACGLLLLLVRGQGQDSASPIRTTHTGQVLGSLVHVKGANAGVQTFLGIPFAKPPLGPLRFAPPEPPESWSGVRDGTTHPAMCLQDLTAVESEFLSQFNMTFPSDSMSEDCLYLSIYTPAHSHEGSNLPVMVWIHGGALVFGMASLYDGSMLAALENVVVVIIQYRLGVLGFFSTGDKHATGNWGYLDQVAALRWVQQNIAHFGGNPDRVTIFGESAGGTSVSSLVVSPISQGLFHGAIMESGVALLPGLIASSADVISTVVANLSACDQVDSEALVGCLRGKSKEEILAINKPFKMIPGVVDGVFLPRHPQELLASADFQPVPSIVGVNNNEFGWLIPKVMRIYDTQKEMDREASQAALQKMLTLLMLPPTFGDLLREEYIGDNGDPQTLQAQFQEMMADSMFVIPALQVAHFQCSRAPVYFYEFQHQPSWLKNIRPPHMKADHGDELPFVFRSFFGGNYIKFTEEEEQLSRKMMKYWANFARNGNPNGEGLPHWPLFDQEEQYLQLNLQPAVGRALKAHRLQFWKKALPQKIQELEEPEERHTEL

[2] = molecular target: T2, carboxylesterase 1 (liver carboxylesterase 1) (Homo sapiens, UniProt P23141); assay: Stability assessed as recombinant human carboxyesterase-1 mediated compound hydrolysis by measuring half life at 50 ug/ml at 37 degC at pH 7.4; assay type: ADME; conditions: recombinant human carboxylesterase-1, pH 7.4
T2 sequence (P23141 whole entry): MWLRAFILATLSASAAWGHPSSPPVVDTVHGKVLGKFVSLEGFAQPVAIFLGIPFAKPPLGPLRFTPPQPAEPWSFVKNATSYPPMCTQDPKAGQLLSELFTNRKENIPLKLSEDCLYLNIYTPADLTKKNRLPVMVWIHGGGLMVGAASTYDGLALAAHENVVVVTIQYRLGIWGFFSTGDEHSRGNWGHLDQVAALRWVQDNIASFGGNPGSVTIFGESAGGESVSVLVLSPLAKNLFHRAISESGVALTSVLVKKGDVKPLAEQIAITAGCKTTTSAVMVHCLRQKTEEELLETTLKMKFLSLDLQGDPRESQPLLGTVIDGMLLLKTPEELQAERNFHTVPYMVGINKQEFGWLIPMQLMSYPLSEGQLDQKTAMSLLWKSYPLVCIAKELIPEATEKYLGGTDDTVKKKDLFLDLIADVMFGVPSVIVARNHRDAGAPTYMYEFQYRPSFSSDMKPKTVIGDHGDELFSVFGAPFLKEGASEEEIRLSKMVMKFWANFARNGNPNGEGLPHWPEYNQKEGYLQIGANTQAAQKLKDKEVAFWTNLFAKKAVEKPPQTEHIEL

A549 = assay: Growth inhibition of human A549 cells relative to control; assay type: functional, cell-based
[3] = molecular target: T3, Connector enhancer of kinase suppressor of ras 1 (Homo sapiens) (UniProt Q969H4); assay: Inhibition of GFP-tagged CNKSR1 (unknown origin) expressed in HEK293T cells assessed as reduction in total mutant-KRas protein at 50 uM incubated for 4 hrs by confocal imaging assay; assay type: cell-based
T3 sequence (whole entry): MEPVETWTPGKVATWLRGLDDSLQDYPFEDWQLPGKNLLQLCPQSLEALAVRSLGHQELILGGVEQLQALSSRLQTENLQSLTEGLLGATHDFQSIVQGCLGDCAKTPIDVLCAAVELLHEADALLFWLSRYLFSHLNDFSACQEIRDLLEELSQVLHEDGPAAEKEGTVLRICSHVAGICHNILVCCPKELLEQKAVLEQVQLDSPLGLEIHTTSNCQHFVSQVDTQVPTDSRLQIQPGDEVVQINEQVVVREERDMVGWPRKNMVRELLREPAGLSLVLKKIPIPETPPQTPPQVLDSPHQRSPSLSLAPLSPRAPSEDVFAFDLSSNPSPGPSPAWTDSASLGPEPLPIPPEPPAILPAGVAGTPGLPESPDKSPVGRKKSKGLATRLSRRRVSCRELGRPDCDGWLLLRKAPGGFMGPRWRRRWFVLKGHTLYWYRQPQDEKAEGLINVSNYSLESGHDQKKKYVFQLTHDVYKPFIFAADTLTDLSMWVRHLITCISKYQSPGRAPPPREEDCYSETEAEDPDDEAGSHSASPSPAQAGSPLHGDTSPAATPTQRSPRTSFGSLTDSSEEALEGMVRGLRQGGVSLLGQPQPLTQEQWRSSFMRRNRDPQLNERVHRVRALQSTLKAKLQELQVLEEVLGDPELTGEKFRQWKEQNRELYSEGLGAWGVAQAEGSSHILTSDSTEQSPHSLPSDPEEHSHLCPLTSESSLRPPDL

[4] = molecular target: T4, 3-phosphoinositide-dependent protein kinase 1 (Homo sapiens) (UniProt O15530); assay: Binding affinity to PDPK1 PH-domain (unknown origin) at 0.01 to 50 uM by SPR spectroscopy
T4 sequence (whole entry): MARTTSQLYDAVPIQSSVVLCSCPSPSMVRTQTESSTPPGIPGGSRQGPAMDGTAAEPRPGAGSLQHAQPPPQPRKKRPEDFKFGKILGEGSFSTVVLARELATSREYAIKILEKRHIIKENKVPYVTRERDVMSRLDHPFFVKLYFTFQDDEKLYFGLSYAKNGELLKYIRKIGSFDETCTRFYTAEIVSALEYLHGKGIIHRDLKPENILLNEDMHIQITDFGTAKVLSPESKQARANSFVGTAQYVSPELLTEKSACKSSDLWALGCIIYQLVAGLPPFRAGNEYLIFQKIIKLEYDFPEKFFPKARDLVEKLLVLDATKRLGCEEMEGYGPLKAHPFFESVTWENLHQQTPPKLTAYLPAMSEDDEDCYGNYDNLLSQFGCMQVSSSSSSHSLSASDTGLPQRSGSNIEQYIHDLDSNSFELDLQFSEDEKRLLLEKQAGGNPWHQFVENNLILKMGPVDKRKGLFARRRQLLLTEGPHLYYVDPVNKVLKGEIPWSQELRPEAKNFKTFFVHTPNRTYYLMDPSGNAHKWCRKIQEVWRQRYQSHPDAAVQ

[5] = Growth inhibition of human […] cells incubated for 3 days; assay type: functional; conditions: 72 h

SMILES: CCOC(=O)Cc1nn(Cc2nc(-c3ccc(C)cc3)cs2)c(=O)c2ccccc12
- half-life at 50 ug/ml [1]: 99 min
- half-life at 50 ug/ml [2]: 19 min
- growth inhibition (GI) (A549): Active
- inhibition [3]: Active
- Activity [4]: inactive
- IC50 [5]: 51 µM
